# Measurements published in patent US20220395522A1, “Methods of Use of Glucosamine for Increasing Nitrogen Retention” (TSI Bioproducts (Xuzhou) Co., Ltd., priority 2021, published 2022).
# Experiments:
# [1] = Body mass, heart rate and blood pressure in randomized, double-blind, placebo-controlled, cross-over supplementation study; format: in vivo, human; conditions: GLU condition, mean ± SD
# Procedure: A randomized, double-blind, placebo-controlled, cross-over study design was conducted on healthy males and females. Participants were instructed to report to a laboratory after observing an overnight (8 to 10-hour) fast while maintaining adequate hydration. Participants were asked to abstain from exercise and avoid alcohol and caffeine consumption for 12 hours prior to each study visit. All participants first completed an initial eligibility visit during which a comprehensive medical history, consent document, and body mass index (BMI) assessment were completed. Results from the BMI assessment was used to finalize eligibility. Once deemed eligible, participants were provided with supplies to begin the study protocol.
# The remainder of the study consisted of two identical patterns of testing with the exception of what supplementation protocol was followed. FIG. 1 provides a flowchart of the experimental design. Prior to each visit, food and physical activity logs were completed encompassing four days prior to the scheduled laboratory visit. The four days consisted of two weekend days and two weekdays. Each participant reported to the laboratory for a baseline measurement of height, weight, heart rate, and blood pressure. During this visit, participants completed the Bristol Stool Chart and Gastrointestinal Symptom Rating Scale (GSRS) to assess bowel habits and potential gastrointestinal symptoms. Participants were given instructions on how to collect a stool sample and were instructed to do so within 24 hours of each planned study visit. At the completion of this study visit, participants were provided with their first assigned supplement (either PLA [placebo] or GLU [glucosamine]) and instructed to begin supplementation 21 days prior to their second visit. Participants were instructed to collect their second stool sample on the day of their final supplementation dose. On the morning of their second study visit, participants reported to the laboratory after following identical pre-study instructions as previous visits (i.e., fasting, abstention from caffeine and exercise). Study participants again completed assessments for height, weight, heart rate, blood pressure, and questionnaires regarding their bowel habits and gastrointestinal symptoms while also providing their second stool sample and turning in completed food and activity logs. A washout period lasting a minimum of 14 days and a maximum of 21 days separated each phase of the crossover as shown in FIG. 1.
# In a double-blind manner, a glucosamine supplement (GLU) or a maltodextrin placebo (PLA) was distributed in identical opaque capsules to all participants. On a daily basis, participants were instructed to ingest three capsules, each containing 1,000 mg of glucosamine hydrochloride (GlucosaGreen®, TSI Group Ltd. MT, USA) or a placebo (maltodextrin) identical in appearance for a total of 21 days. Each visit at the beginning of the supplementation regimen (Visits 1 and 4, respectively; See FIG. 1) occurred on or before the first day of supplementation while the final day of supplementation occurred the day before each participant's follow-up visit for that study period (Visits 2 and 4, respectively). Participants were instructed to ingest the supplement 15-30 minutes before breakfast with eight fluid ounces of cold water. In the case of a missed dose, participants were instructed to consume the missed dose as soon as possible with a meal. […] The dose of maltodextrin used in the following examples was two to five-fold lower, respectively, than these investigations.
# Height and weight were measured for every participant without shoes and in minimal clothing using a standardized wall-mounted stadiometer (Tanita, model #HR-200, Tokyo, Japan) and a self-calibrating digital scale (Tanita, model #BWB-627A Class III, Tokyo, Japan). Prior to heart rate and blood pressure measurements, participants rested in a seated position for five minutes. […]
# [2] = test system: fecal microbiota; experiment: Fecal microbiota analysis (16S rRNA), alpha and beta diversity; format: in vivo, human
# Procedure: To determine significant differences between bacterial alpha diversity metrics (the measure of microbiome diversity within a single sample), a paired t-test was used between alpha diversity values of different sample groups (p<0.05). Significant differences in beta diversity (the measure of similarity or dissimilarity of multiple samples) between groups was determined using the qiime diversity beta-group-significance command in QIIME2 as well, which performs pairwise Permutational Multivariate Analysis of Variance (PERMANOVA) tests on beta diversity distance matrices (p<0.05). Differential abundance of taxa between sample groups were evaluated using Multivariate Analysis by Linear Models (MaAsLin) in R version 4.0.2 using the Maaslin2 command in the Maaslin2 R library on rarified taxonomy data generated by QIIME2 (p<0.05). Additional evaluation of differential abundance of taxa was performed using Analysis of Composition of Microbiomes (ANCOM) using the qiime composition ancom command after collapsing the feature table to the family level (level 5) using the qiime taxa collapse command on QIIME2. Data visualization was performed using the ggplot2 package, with data frame manipulation commands from the dplyr package, within the tidyverse collection of R packages.
# Stool specimens were collected at four time points throughout the entire study protocol. The first two samples were collected before and after the first supplementation period while the final two samples were collected before and after the second supplementation period. All stool specimens were collected no more than 24-hours prior to that study participant being scheduled to complete their laboratory visit. All samples were immediately frozen after sample collection by the study participants. […]
# A fecal microbiota analysis was further conducted. […] The Qubit Fluorometer (Thermo Fisher Scientific, San Francisco, Calif.) was used to quantify PCR product concentrations prior to combining the PCR products in equal quantities for purification with the Wizard SV Gel and PCR Cleanup kit (Promega, Madison, Wis.). […]
# [3] = Post 21 days, 3 x 1,000 mg/day oral
compound,measurement,setting,value
"Cl.N[C@H]1C(O)O[C@H](CO)[C@@H](O)[C@@H]1O (stereo partly drawn) [GLU, glucosamine hydrochloride]",Diastolic BP,[1]; [3],77.0 ± 9.8 mmHg
same,Heart Rate,[1]; [3],63.1 ± 8.1 beats/min
same,Systolic BP,[1]; [3],119.4 ± 10.8 mmHg
same,Diastolic BP,[1]; Pre (baseline),73.9 ± 9.3 mmHg
same,Heart Rate,[1]; Pre (baseline),66.8 ± 7.7 beats/min
same,Systolic BP,[1]; Pre (baseline),121.7 ± 14.2 mmHg
same,Other alpha diversity measures (Observed OTUs or Shannon Evenness),"[2]; Post vs Pre, paired t-test p>0.05",not significantly altered
same,Changes in beta-diversity (unweighted Unifrac distances),"[2]; compared to baseline, PERMANOVA p>0.05",not significantly different
same,"Alpha diversity of fecal bacterial communities, Faith's Phylogenetic Diversity (PD)","[2]; following GLU consumption compared to baseline, paired t-test p=4.59E-03",significantly decreased
